In patent US7795239B2, “Saccharide compositions and method of use” (Mueller Medical International LLC, priority 1992, dated 2010):

Parameters: AUC for Cimetidine / AUC for Ranitidine: unit not given beside the values
Conditions: in vivo

Row | AUC for Cimetidine | dissolved drug not absorbed from the GI tract into the blood stream | AUC for Ranitidine | SMILES
1 | 54.3 | 15-20% | – | CN/C(=N/CCSCc1nc[nH]c1C)NC#N [cimetidine]
2 | – | 15-20% | – | NC(N)=Nc1nc(CSCCC(N)=NS(N)(=O)=O)cs1 [famotidine]
3 | – | 15-20% | 55.2 | CNC(=C[N+](=O)[O-])NCCSCc1ccc(CN(C)C)o1 [ranitidine]
